Source: US20080009418A1, “Selective Inhibitors” (Alchemia LTD., priority 2004, published 2008)

Legend:
Settings in all cases: compound at 10 μM
Human Melanocortin (MC3) = biological target: T1, Human Melanocortin (MC3) (Homo sapiens, UniProt P41968); experiment: Radioligand binding, human melanocortin MC3 membranes, FlashPlate, [125I]-NDP-αMSH
T1 construct: purchased Perkin Elmer Biosignal
In short: (§1)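 Cloned human receptor membranes were coated onto FlashPlate wells and incubated with radioligand and compound (added from a 0.5 mM DMSO daughter plate) for 1 hour at room temperature in the dark. Scintillation counting gave percent inhibition, with DMSO defining total and reference ligand defining non-specific binding.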

Human δ-opioid (DOP) = biological target: T2, Human δ-opioid (DOP) (Homo sapiens, UniProt P41143); experiment: Radioligand binding, human δ-opioid (DOP) membranes, FlashPlate, [3H]-Bremazocine
T2 construct: purchased Perkin Elmer Biosignal
T2 sequence (P41143 whole entry): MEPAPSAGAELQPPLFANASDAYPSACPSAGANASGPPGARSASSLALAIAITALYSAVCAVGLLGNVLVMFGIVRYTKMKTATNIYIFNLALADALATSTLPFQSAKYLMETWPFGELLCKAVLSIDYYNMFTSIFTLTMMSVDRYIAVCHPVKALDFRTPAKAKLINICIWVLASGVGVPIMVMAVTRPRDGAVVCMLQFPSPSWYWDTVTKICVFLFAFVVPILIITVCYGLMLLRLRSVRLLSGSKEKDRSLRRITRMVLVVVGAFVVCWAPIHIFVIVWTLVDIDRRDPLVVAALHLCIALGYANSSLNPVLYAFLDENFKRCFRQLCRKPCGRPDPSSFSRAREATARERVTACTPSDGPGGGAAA
In short: as §1

[1] = biological target: T3, Human neuropeptide Y (NPY-Y1) (Homo sapiens, UniProt P25929); experiment: Radioligand binding, human neuropeptide Y NPY-Y1 membranes, FlashPlate, [125I]-PYY
T3 construct: purchased Perkin Elmer Biosignal
T3 sequence (P25929 1-384): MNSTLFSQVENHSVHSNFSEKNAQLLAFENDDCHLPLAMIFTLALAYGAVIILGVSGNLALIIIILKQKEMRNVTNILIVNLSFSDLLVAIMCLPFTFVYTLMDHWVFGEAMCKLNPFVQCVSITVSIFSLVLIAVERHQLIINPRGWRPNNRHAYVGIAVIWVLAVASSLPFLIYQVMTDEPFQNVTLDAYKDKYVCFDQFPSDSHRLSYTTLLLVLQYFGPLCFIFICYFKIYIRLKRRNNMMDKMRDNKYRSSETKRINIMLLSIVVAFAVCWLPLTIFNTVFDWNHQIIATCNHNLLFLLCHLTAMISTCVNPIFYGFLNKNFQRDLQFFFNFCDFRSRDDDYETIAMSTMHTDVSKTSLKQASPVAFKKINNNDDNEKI
In short: as §1

[2] = biological target: T4, Human melanin-concentrating hormone (MCH1) (Homo sapiens, UniProt Q99705); experiment: Radioligand binding, human melanin-concentrating hormone MCH1 membranes, FlashPlate, [125I]-S36057
T4 construct: purchased Perkin Elmer Biosignal
T4 sequence (Q99705 whole entry): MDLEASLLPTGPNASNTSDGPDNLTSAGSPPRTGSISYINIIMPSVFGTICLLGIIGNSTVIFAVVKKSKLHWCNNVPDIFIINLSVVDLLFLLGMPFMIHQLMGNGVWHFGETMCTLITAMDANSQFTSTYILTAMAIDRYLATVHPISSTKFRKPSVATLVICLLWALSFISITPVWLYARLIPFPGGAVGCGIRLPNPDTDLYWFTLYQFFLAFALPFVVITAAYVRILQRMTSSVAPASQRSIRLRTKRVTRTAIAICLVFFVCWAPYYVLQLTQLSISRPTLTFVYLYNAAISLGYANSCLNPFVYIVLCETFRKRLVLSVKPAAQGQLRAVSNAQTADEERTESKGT
In short: as §1

Human Melanocortin (MC4) = biological target: T5, Human Melanocortin (MC4) (Homo sapiens, UniProt P32245); experiment: Radioligand binding, human melanocortin MC4 membranes, FlashPlate, [125I]-NDP-αMSH
T5 construct: purchased Perkin Elmer Biosignal
T5 sequence (P32245 whole entry): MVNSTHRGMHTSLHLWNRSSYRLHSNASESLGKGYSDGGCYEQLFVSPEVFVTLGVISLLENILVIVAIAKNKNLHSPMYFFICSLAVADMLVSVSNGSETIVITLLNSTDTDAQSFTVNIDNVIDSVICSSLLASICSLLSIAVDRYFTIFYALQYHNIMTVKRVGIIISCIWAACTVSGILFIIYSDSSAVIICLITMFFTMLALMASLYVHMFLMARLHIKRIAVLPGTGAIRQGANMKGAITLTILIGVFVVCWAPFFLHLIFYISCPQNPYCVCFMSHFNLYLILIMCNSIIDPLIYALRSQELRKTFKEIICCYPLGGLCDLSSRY
In short: as §1

Human opioid (ORL1) = biological target: T6, Human opioid (ORL1) (Homo sapiens, UniProt P41146); experiment: Radioligand binding, human opioid ORL1 membranes, FlashPlate, [125I]-Nociceptin
T6 construct: purchased Perkin Elmer Biosignal
T6 sequence (P41146 whole entry): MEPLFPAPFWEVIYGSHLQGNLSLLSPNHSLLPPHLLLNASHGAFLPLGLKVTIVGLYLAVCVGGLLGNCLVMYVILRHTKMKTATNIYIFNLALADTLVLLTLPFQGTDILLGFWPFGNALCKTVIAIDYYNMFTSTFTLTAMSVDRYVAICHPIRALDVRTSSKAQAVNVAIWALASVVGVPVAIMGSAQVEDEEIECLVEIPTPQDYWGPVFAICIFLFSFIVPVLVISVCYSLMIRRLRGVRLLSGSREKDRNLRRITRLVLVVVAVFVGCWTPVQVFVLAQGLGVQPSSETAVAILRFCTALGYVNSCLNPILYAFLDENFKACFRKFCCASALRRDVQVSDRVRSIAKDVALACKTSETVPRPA
In short: as §1

Human μ-opioid (MOP) = biological target: T7, Human μ-opioid (MOP) (Homo sapiens, UniProt P35372); experiment: Radioligand binding, human μ-opioid (MOP) membranes, FlashPlate, [3H]-Naloxone
T7 construct: purchased Perkin Elmer Biosignal
T7 sequence (P35372 whole entry): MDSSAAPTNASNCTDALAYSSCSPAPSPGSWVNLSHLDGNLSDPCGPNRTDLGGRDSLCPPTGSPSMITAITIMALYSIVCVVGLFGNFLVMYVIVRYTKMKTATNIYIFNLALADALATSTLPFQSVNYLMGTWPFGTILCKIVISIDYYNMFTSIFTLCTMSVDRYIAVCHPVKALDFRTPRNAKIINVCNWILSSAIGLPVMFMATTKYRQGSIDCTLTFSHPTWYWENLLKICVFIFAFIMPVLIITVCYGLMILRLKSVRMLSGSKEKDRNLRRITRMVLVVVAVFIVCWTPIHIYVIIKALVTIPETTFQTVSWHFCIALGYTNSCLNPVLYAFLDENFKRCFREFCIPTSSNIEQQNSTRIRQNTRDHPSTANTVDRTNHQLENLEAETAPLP
In short: as §1

Human melanocortin (MC5) = biological target: T8, Human melanocortin (MC5) (Homo sapiens, UniProt P33032); experiment: Radioligand binding, human melanocortin MC5 membranes, FlashPlate, [125I]-NDP-αMSH
T8 construct: purchased Perkin Elmer Biosignal
T8 sequence (P33032 whole entry): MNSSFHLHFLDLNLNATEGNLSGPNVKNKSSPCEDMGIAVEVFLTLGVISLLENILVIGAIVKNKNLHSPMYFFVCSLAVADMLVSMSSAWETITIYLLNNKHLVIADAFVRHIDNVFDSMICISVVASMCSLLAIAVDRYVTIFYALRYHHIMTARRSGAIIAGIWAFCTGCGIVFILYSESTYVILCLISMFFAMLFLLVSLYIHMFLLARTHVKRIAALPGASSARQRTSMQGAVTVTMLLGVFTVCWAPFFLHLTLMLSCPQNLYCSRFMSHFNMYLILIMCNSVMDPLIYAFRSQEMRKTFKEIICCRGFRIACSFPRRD
In short: as §1

Human neurokinin (NK1) = biological target: T9, Human neurokinin (NK1) (Homo sapiens, UniProt P25103); experiment: Radioligand binding, human neurokinin NK1 membranes, filtration, [125I]-Substance P
T9 construct: purchased Perkin Elmer Biosignal
T9 sequence (P25103 whole entry): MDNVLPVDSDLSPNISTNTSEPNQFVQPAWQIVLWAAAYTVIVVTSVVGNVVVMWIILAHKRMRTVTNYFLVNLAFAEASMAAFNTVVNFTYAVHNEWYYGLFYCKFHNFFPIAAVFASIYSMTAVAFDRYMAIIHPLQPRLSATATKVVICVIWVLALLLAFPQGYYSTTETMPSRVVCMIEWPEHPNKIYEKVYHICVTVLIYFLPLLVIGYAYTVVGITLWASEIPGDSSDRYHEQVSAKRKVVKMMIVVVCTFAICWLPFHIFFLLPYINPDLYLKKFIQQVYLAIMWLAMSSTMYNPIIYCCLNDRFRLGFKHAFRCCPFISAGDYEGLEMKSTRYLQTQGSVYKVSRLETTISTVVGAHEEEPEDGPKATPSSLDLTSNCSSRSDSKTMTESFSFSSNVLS
In short: (§2)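 Percent inhibition of radioligand binding measured on recombinant human membranes: NK1 with [125I]-Substance P, KOP with [3H]-Diprenorphine. Incubation 1 h at room temperature, then harvest onto 0.3% PEI-soaked filters, cold Tris-HCl pH 7.4 washes and scintillation counting; non-specific binding from reference ligand wells.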

Human κ-Opioid (KOP) = biological target: T10, Human κ-Opioid (KOP) (Homo sapiens, UniProt P41145); experiment: Radioligand binding, human κ-opioid (KOP) membranes, filtration, [3H]-Diprenorphine
T10 construct: purchased Perkin Elmer Biosignal
T10 sequence (P41145 whole entry): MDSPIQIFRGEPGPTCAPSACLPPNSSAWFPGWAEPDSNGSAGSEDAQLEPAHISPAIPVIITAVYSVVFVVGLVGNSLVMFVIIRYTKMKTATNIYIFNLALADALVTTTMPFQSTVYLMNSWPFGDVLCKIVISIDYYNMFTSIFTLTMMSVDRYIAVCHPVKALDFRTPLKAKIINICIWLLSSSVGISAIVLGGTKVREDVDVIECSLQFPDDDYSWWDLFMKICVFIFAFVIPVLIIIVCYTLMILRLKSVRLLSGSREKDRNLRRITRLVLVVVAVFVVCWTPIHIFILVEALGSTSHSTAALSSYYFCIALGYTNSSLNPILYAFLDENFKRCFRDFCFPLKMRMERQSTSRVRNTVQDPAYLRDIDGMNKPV
In short: as §2

Mouse urotensin (mUR2) = biological target: T11, Mouse urotensin (mUR2) (Mus musculus, UniProt Q8VIH9); experiment: Radioligand binding, mouse urotensin mUR2 membranes, FlashPlate, [125I]-Urotensin II
T11 construct: purchased Perkin Elmer Biosignal
T11 sequence (Q8VIH9 1-385): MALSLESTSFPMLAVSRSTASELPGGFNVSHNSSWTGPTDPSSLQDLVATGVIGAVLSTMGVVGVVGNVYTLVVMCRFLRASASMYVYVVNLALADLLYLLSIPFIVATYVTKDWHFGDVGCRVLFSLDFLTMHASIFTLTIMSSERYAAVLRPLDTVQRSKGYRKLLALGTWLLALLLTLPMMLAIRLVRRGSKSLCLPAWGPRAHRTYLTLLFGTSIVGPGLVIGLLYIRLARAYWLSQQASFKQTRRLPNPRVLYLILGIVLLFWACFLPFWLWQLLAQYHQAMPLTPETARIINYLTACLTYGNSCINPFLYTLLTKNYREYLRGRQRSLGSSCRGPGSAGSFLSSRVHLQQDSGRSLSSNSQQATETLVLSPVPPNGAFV
In short: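 Cloned mouse urotensin (mUR2) receptor membranes from Perkin Elmer Biosignal were immobilized in FlashPlate microplates using a proprietary coating. Each well got 19.5 μl buffer, then 0.5 μl of DMSO, reference ligand, or compound. Adding 5 μl of [125I]-Urotensin II, diluted to 5× final concentration in binding buffer, started binding. Plates were sealed with TopSeal-A and incubated 1 hour at room temperature in the dark. Wells were counted for 30 seconds each on a TopCount after a 60-second delay, and percentage inhibition was calculated.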

[3] = [3H]-Bremazocine, human DOP membranes
[4] = [125I]-PYY, human NPY-Y1 membranes
[5] = [125I]-Substance P, human NK1 membranes
[6] = [125I]-Urotensin II, mouse mUR2 membranes

T1 sequence (P41968 whole entry): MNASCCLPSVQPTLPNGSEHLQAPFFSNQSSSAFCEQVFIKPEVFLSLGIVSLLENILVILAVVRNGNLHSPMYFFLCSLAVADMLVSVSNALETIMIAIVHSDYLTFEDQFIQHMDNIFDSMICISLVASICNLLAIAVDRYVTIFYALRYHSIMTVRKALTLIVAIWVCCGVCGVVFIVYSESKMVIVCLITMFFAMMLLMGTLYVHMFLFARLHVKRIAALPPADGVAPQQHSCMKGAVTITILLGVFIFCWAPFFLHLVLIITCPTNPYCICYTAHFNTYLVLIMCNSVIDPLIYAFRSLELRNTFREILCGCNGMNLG

CSC1O[C@H](COCc2ccc3ccccc3c2)[C@@H](O)[C@@H](OCc2ccc(Cl)cc2)[C@H]1NC(=O)CNC(=N)N (stereo partly shown) [compound 281]
A3: inhibition of radioligand binding (Human Melanocortin (MC3); [125I]-NDP-αMSH, FlashPlate): + (“+” indicates greater than 50% inhibition at 10 μM) | A1: inhibition of radioligand binding (Human δ-opioid (DOP); [3H]-Bremazocine, FlashPlate): − (“−” indicates less than 50% inhibition at 10 μM) | A9: inhibition of radioligand binding ([1]; [125I]-PYY, FlashPlate): − (“−” indicates less than 50% inhibition at 10 μM) | A6: inhibition of radioligand binding ([2]; [125I]-S36057, FlashPlate): − (“−” indicates less than 50% inhibition at 10 μM) | A4: inhibition of radioligand binding (Human Melanocortin (MC4); [125I]-NDP-αMSH, FlashPlate): + (“+” indicates greater than 50% inhibition at 10 μM) | A10: inhibition of radioligand binding (Human opioid (ORL1); [125I]-Nociceptin, FlashPlate): − (“−” indicates less than 50% inhibition at 10 μM) | A7: inhibition of radioligand binding (Human μ-opioid (MOP); [3H]-Naloxone, FlashPlate): − (“−” indicates less than 50% inhibition at 10 μM) | A5: inhibition of radioligand binding (Human melanocortin (MC5); [125I]-NDP-αMSH, FlashPlate): + (“+” indicates greater than 50% inhibition at 10 μM) | A8: inhibition of radioligand binding (Human neurokinin (NK1); [125I]-Substance P, filtration): + (“+” indicates greater than 50% inhibition at 10 μM) | A2: inhibition of radioligand binding (Human κ-Opioid (KOP); [3H]-Diprenorphine, filtration): − (“−” indicates less than 50% inhibition at 10 μM) | A11: inhibition of radioligand binding (Mouse urotensin (mUR2); [125I]-Urotensin II, FlashPlate): − (“−” indicates less than 50% inhibition at 10 μM)

N=C(N)NCCC(=O)NC1C(OCc2ccc(-c3ccccc3)cc2)OC(COCc2ccccc2)C(O)C1OCc1ccc(-c2ccccc2)cc1 (stereo not shown) [compound 415]
A3: inhibition of radioligand binding (Human Melanocortin (MC3); [125I]-NDP-αMSH, human MC3 membranes): + (“+” indicates greater than 50% inhibition at 10 μM) | A1: inhibition of radioligand binding (Human δ-opioid (DOP); [3]): − (“−” indicates less than 50% inhibition at 10 μM) | A9: inhibition of radioligand binding [1, 4]: − (“−” indicates less than 50% inhibition at 10 μM) | A6: inhibition of radioligand binding ([2]; [125I]-S36057, human MCH1 membranes): + (“+” indicates greater than 50% inhibition at 10 μM) | A4: inhibition of radioligand binding (Human Melanocortin (MC4); [125I]-NDP-αMSH, human MC4 membranes): + (“+” indicates greater than 50% inhibition at 10 μM) | A10: inhibition of radioligand binding (Human opioid (ORL1); [125I]-Nociceptin, human ORL1 membranes): − (“−” indicates less than 50% inhibition at 10 μM) | A7: inhibition of radioligand binding (Human μ-opioid (MOP); [3H]-Naloxone, human MOP membranes): − (“−” indicates less than 50% inhibition at 10 μM) | A5: inhibition of radioligand binding (Human melanocortin (MC5); [125I]-NDP-αMSH, human MC5 membranes): + (“+” indicates greater than 50% inhibition at 10 μM) | A8: inhibition of radioligand binding (Human neurokinin (NK1); [5]): + (“+” indicates greater than 50% inhibition at 10 μM) | A2: inhibition of radioligand binding (Human κ-Opioid (KOP); [3H]-Diprenorphine, human KOP membranes): − (“−” indicates less than 50% inhibition at 10 μM) | A11: inhibition of radioligand binding (Mouse urotensin (mUR2); [6]): − (“−” indicates less than 50% inhibition at 10 μM)

CSC1OC(COCc2ccc(-c3ccccc3)cc2)C(O)C(OCc2ccc3ccccc3c2)C1NC(=O)CCN (stereo not shown) [compound 313]
A3: inhibition of radioligand binding, human melanocortin (MC3) (Human Melanocortin (MC3); [125I]-NDP-αMSH): − (“−” indicates less than 50% inhibition at 10 μM) | A1: inhibition of radioligand binding, human δ-opioid (DOP) (Human δ-opioid (DOP); [3H]-Bremazocine): − (“−” indicates less than 50% inhibition at 10 μM) | A9: inhibition of radioligand binding, human neuropeptide Y (NPY-Y1) ([1]; [125I]-PYY): − (“−” indicates less than 50% inhibition at 10 μM) | A6: inhibition of radioligand binding, human melanin-concentrating hormone (MCH1) ([2]; [125I]-S36057): − (“−” indicates less than 50% inhibition at 10 μM) | A4: inhibition of radioligand binding, human melanocortin (MC4) (Human Melanocortin (MC4); [125I]-NDP-αMSH): − (“−” indicates less than 50% inhibition at 10 μM) | A10: inhibition of radioligand binding, human opioid (ORL1) (Human opioid (ORL1); [125I]-Nociceptin): − (“−” indicates less than 50% inhibition at 10 μM) | A7: inhibition of radioligand binding, human μ-opioid (MOP) (Human μ-opioid (MOP); [3H]-Naloxone): − (“−” indicates less than 50% inhibition at 10 μM) | A5: inhibition of radioligand binding, human melanocortin (MC5) (Human melanocortin (MC5); [125I]-NDP-αMSH): + (“+” indicates greater than 50% inhibition at 10 μM) | A8: inhibition of radioligand binding, human neurokinin (NK1) (Human neurokinin (NK1); [125I]-Substance P): + (“+” indicates greater than 50% inhibition at 10 μM) | A2: inhibition of radioligand binding, human κ-opioid (KOP) (Human κ-Opioid (KOP); [3H]-Diprenorphine): − (“−” indicates less than 50% inhibition at 10 μM) | A11: inhibition of radioligand binding, mouse urotensin (mUR2) (Mouse urotensin (mUR2); [125I]-Urotensin II): − (“−” indicates less than 50% inhibition at 10 μM)

CO[C@H]1[C@H](O)[C@@H](COCc2ccc3ccccc3c2)OC(OCc2ccccc2)[C@@H]1NC(=O)CCCN (stereo partly shown) [compound 88]
A3 radioligand binding inhibition (Human Melanocortin (MC3); human melanocortin MC3 membranes): − (“−” indicates less than 50% inhibition at 10 μM) | A1 radioligand binding inhibition (Human δ-opioid (DOP); human δ-opioid (DOP) membranes): − (“−” indicates less than 50% inhibition at 10 μM) | A9 radioligand binding inhibition ([1]; human NPY-Y1 membranes): − (“−” indicates less than 50% inhibition at 10 μM) | A6 radioligand binding inhibition ([2]; human MCH1 membranes): − (“−” indicates less than 50% inhibition at 10 μM) | A4 radioligand binding inhibition (Human Melanocortin (MC4); human melanocortin MC4 membranes): − (“−” indicates less than 50% inhibition at 10 μM) | A10 radioligand binding inhibition (Human opioid (ORL1); human ORL1 membranes): − (“−” indicates less than 50% inhibition at 10 μM) | A7 radioligand binding inhibition (Human μ-opioid (MOP); human μ-opioid (MOP) membranes): − (“−” indicates less than 50% inhibition at 10 μM) | A5 radioligand binding inhibition (Human melanocortin (MC5); human melanocortin MC5 membranes): − (“−” indicates less than 50% inhibition at 10 μM) | A8 radioligand binding inhibition (Human neurokinin (NK1); human neurokinin NK1 membranes): + (“+” indicates greater than 50% inhibition at 10 μM) | A2 radioligand binding inhibition (Human κ-Opioid (KOP); human κ-opioid (KOP) membranes): − (“−” indicates less than 50% inhibition at 10 μM) | A11 radioligand binding inhibition (Mouse urotensin (mUR2); mouse urotensin mUR2 membranes): − (“−” indicates less than 50% inhibition at 10 μM)

NCCC(=O)N[C@H]1C(OCc2ccc3ccccc3c2)O[C@H](COCc2ccccc2)[C@@H](O)[C@@H]1OCc1ccc2ccccc2c1 (stereo partly shown) [compound 444]
A3: inhibition of radioligand binding (Human Melanocortin (MC3); [125I]-NDP-αMSH, human MC3 membranes, 10 µM): − (“−” indicates less than 50% inhibition at 10 μM) | A1: inhibition of radioligand binding (Human δ-opioid (DOP); [3]): − (“−” indicates less than 50% inhibition at 10 μM) | A9: inhibition of radioligand binding [1, 4]: − (“−” indicates less than 50% inhibition at 10 μM) | A6: inhibition of radioligand binding ([2]; [125I]-S36057, human MCH1 membranes, 10 µM): − (“−” indicates less than 50% inhibition at 10 μM) | A4: inhibition of radioligand binding (Human Melanocortin (MC4); [125I]-NDP-αMSH, human MC4 membranes, 10 µM): − (“−” indicates less than 50% inhibition at 10 μM) | A10: inhibition of radioligand binding (Human opioid (ORL1); [125I]-Nociceptin, human ORL1 membranes, 10 µM): − (“−” indicates less than 50% inhibition at 10 μM) | A7: inhibition of radioligand binding (Human μ-opioid (MOP); [3H]-Naloxone, human MOP membranes, 10 µM): − (“−” indicates less than 50% inhibition at 10 μM) | A5: inhibition of radioligand binding (Human melanocortin (MC5); [125I]-NDP-αMSH, human MC5 membranes, 10 µM): − (“−” indicates less than 50% inhibition at 10 μM) | A8: inhibition of radioligand binding (Human neurokinin (NK1); [5]): + (“+” indicates greater than 50% inhibition at 10 μM) | A2: inhibition of radioligand binding (Human κ-Opioid (KOP); [3H]-Diprenorphine, human KOP membranes, 10 µM): − (“−” indicates less than 50% inhibition at 10 μM) | A11: inhibition of radioligand binding (Mouse urotensin (mUR2); [6]): − (“−” indicates less than 50% inhibition at 10 μM)
